Experimental data reported in US20250313653A1, “GUEST/HOST INCLUSION COMPLEXES CONTAINING S-NITROSOGLUTATHIONE AND METHODS OF USE THEREOF” (VIRGINIA COMMONWEALTH UNIVERSITY, priority 2022, published 2025).

What was measured:
[1] = Stability of GSNO in agar hydrogel (colour fading); type: physicochemical; conditions: 1% agar hydrogel, 0.1 M GSNO, 37° C.
Description: (§1) Two grams of agar were dissolved in 100 mL of 0.1 M phosphate buffer at pH 7.4 at 80° C. for 3 h with stirring. GSNO solutions at 0.2 M with or without 0.2 M αCD in 0.1 M phosphate buffer at pH 7.4 were prepared separately. Then, 0.5 mL GSNO solution and 0.5 mL dissolved agar were mixed and put into an ice bath to facilitate gelation.

[2] = system: E. coli; test: Antibacterial effect of NO release solutions, 3-day exposure; type: cell-based; conditions: silicone surface
Description: (§2) Both biofilm and planktonic bacteria were quantified to evaluate the antibacterial activities of the proposed method. LB medium (25 mg/mL) was used to culture all bacterial strains overnight before performing the antibacterial tests. Segments of medical-grade silicone tubes were all autoclaved. Lock solutions were freshly prepared using the sterilized buffer and filtered through a 0.22 m PES syringe filter. The biofilms on the silicone surface were dip-rinsed 5 times in PBS and detached by 1-min vertexing, 1-min sonication (20% power of a 150 W probe sonifier, Branson Ultrasonics), and another 1-min vertexing for plate counting. When quantifying the planktonic bacteria, the suspension was homogenized by 1-min vertexing. […] After plate incubation at 37° C. overnight, colony-forming units (CFU) of bacteria were counted and converted to CFU/cm^2 for biofilm quantification and CFU/mL for planktonic bacteria quantification. […] In our case, the limit of detection (LOD) is 400 CFU/cm^2 for biofilm quantification and 200 CFU/mL for quantification of planktonic bacteria. […] The statistical significance between groups was determined using a student's t-test.
(§3) The 0.1 M αCD, 0.1 M GSNO, and 0.1 M GSNO+0.1 M αCD solutions were prepared in LB broth buffered with 0.1 M Na2HPO4 and adjusted to pH 7.4. […] Viable biofilm and planktonic cells were evaluated by plate counting. […]

[3] = administrated in humans, dogs, and rats at appropriate doses; cited from earlier work
[4] = system: S. aureus; test: Prevention of intraluminal catheter infection (planktonic and biofilm); type: cell-based; conditions: 3-day experiments
Description: as §2, §3

[5] = system: S. aureus; test: Agar diffusion assay for the hydrogel containing GSNO; type: cell-based; conditions: agar hydrogel on inoculated LB-agar plate, 24-h incubation at 37° C.
Description: as §1
The overnight S. aureus culture was diluted to a density of 0.1 OD600 in PBS. Then, the diluted bacterial inoculum was uniformly spread on an LB-agar plate using a sterile cotton swab. The plate was marked as four separate portions. Forty μL of warm liquid agar with only buffer, GNSO, αCD, or GSNO-αCD (see section 2.5) was added onto a portion of the inoculated plate twice. The agar solution was gelated almost instantly due to the temperature decrease to form a small circular hydrogel area. The bacterial growth was visually examined after 24-h incubation at 37° C.

[6] = system: fibroblast L929 cells; test: Cytotoxicity test (MTS assay) of lock-solution-filled silicone tubes; type: cell-based, mouse; conditions: 24-h incubation of L929 cells with silicone tubes filled with the lock solution
Description: L929 murine fibroblast cells were suspended in complete media (DMEM with 1% penicillin/streptomycin and 10% FBS) before being seeded in a 24-well plate at a concentration of 5×10^5 cells per well. After 24 h of incubation, the attached cells in each well were incubated in fresh media containing a sterilized 1-cm silicone tube (HelixMark® 60-011-07) filled with a lock solution with buffer, GSNO, or GSNO-αCD and with both ends sealed. MTS assays were performed following the manufacturer's procedure after an additional 24-h incubation. Absorbance at 490 nm was measured by a Cytation 3 imaging plate reader (Biotek).

[7] = NO release from GSNO solutions (chemiluminescence NO analyzer); type: physicochemical; conditions: 3 mL of 0.1 M GSNO solution with or without an equal mole of αCD, 37° C.
Description: The NO release was quantified by an ECO PHYSICS NO analyzer (nCLD 66). […] of castor oil was added to NO release solutions as an antifoam agent when 3 mL GSNO or GSNO-CD solutions were tested in an amber glass cell at 37° C. Humidified air was vacuumed into the solution to carry NO continuously into the chemiluminescence detection chamber at a flow rate of 100 cm^3/min. The solutions were stored in sealed amber glass vials between measurements at 37° C. To monitor the NO release from catheters, solutions were filled into 2.5 cm-long medical-grade silicone tubes (HelixMark® 60-011-07, 1.58 mm ID, 2.41 mm OD) that were scaled on both ends with plastic rods. The filled tubes were placed into the amber glass cell containing 5 mL of 0.01 M PBS with 0.1 mM EDTA (PBSE) at 37° C. N2 was used as the carrier gas at a flow rate of 100 cm^3/min to introduce NO into the analyzer. Filled tubes were stored in 10 mL PBSE at 37° C. in the dark between measurements. The soaking PBSE solution was refreshed after each measurement.

Structure (SMILES): N[C@@H](CCC(=O)N[C@@H](CSN=O)C(=O)NCC(=O)O)C(=O)O [GSNO, S-nitrosoglutathione]
- time the reddish color of GSNO lasts ([1]; with an equal mole of αCD): more than 6 days
- time in which the reddish color of GSNO fades ([1]; without αCD): less than 2 days
- reduction of E. coli biofilm [2]: 79%
- toxicities in in vivo studies [3]: did not reveal any toxicities
- reduction of bacterial biofilm on silicone rubber [4]: 99.2%
- reduction of growth of planktonic S. aureus compared to the phosphate buffer ([4]; 0.1 M GSNO without or with 0.1 M αCD, 37° C.): 5 orders of magnitude
- S. aureus growth on the hydrogel [5]: grows less bacteria
- cytotoxicity / cell viability (MTS) [6]: no cytotoxicity
- duration of NO release [7]: 6 days
